Experimental data reported in ChEMBL document CHEMBL1201862, “PubChem BioAssay data set” (2004).
Active and inactive are the calls of the source.

Experiments:
[1] = target: Sphingosine 1-phosphate receptor 2 (Homo sapiens, UniProt O95136); assay: Dose Response Cell Based Assay for Agonists of the S1P2 Receptor of Purchased Analogues. [Related pubchem assays: 729, 843, 854, 736 ]; format: functional
[2] = Luminescence Cell-Based Dose Confirmation HTS to Identify Activators of 5'UTR Stem-Loop Driven Alpha-Synuclein mRNA Translation in H4 Neuroglioblastoma Cells. [Related pubchem assays: 1829 (Project Summary), 1814 (Primary HTS)]; format: functional
[3] = Luminescence Cell-Based Dose Response HTS to Identify Activators of Luciferase Translation or Activity in H4 […] Cells. [Related pubchem assays: 1829 (Project Summary), 1814 (Primary HTS)]; format: functional
[4] = system: H4; assay: Luminescence Cell-Based Dose Response HTS to Identify Activators of 5'UTR Stem-Loop Driven Prion Protein mRNA Translation in H4 Neuroglioblastoma Cells. [Related pubchem assays: 1829 (Project Summary), 1814 (Primary HTS)]; format: functional; details: Homo sapiens
[5] = target: T1, Mannose-6-phosphate isomerase (Homo sapiens, UniProt P34949); assay: MPI enzyme activity inhibition – biochemical, fluorescence intensity, coupled assay, primary screen (AID 1209)
T1 sequence (P34949 whole entry): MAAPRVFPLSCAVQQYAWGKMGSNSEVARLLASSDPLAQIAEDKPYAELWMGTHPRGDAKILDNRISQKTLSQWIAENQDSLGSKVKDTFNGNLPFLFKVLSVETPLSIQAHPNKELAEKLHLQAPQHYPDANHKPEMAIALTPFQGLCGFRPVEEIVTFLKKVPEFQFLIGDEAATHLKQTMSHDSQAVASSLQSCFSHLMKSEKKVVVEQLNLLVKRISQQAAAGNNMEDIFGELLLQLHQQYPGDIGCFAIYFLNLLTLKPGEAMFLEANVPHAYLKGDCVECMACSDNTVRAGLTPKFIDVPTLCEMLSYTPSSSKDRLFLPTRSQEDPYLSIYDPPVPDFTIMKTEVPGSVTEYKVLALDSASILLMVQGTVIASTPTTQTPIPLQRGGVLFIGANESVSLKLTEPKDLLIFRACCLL

[6] = target: T1, Mannose-6-phosphate isomerase; assay: MPI inhibition at elevated mannose 6-phosphate – biochemical, fluorescence intensity, high mannose 6-phosphate, primary screen (AID 1220)
[7] = target: T2, Leucine aminopeptidase (Plasmodium falciparum 3D7, UniProt Q8IL11); assay: P. falciparum M17LAP inhibitors, primary screen, biochemical, fluorogenic H-Leu-NHMec substrate, 1536-well (AID 1619); format: functional
T2 sequence (Q8IL11 whole entry): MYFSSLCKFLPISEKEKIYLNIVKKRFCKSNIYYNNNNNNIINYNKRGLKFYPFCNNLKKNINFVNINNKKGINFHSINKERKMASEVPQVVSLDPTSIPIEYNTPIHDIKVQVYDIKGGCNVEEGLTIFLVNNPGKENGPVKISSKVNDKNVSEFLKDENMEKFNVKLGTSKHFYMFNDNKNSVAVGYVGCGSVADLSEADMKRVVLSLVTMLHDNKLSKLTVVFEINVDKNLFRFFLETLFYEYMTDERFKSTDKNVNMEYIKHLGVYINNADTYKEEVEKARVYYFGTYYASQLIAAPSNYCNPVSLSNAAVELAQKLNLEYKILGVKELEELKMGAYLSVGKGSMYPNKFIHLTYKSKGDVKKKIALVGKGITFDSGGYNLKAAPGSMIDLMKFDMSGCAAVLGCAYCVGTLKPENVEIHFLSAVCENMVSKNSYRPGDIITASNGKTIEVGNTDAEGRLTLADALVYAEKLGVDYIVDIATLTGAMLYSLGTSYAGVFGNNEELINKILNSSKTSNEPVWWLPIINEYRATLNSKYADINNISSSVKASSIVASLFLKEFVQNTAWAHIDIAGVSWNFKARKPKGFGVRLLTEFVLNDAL

[8] = target: T3, Aspartyl aminopeptidase (Plasmodium falciparum 3D7, UniProt Q8I2J3); assay: Counterscreen for inhibitors of M1 and M17 aminopeptidases: QFRET-based biochemical high throughput dose response assay for inhibitors of the Plasmodium falciparum M18 Aspartyl Aminopeptidase (PFM18AAP). [Related PubChem assays: 1619 (Screening assay (M17LAP inhibitors).), 1445 (Screening assay (M1AAP inhibitors).)]
T3 sequence (Q8I2J3 whole entry): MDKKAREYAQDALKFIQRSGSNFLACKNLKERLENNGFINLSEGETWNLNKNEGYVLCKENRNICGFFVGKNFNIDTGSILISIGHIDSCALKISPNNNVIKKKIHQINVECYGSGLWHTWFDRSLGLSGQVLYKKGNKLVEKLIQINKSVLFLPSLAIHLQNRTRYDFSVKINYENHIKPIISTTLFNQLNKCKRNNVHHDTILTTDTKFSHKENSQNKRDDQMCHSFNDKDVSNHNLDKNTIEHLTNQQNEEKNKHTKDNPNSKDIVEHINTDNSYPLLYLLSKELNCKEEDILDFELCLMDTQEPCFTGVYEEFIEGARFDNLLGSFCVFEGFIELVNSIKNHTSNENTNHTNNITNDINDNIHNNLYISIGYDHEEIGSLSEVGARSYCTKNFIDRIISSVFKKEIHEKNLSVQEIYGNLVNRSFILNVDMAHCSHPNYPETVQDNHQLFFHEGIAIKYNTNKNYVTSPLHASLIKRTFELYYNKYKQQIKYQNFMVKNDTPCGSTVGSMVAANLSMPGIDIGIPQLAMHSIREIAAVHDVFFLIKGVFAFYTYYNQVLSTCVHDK

[9] = target: Procathepsin L (Homo sapiens, UniProt P07711); assay: CTSL1 protease inhibition – biochemical, QFRET, 1536-well, counter-screen for M1/M17 aminopeptidase inhibitor project, dose response (AID 2214)
Procathepsin L, sequence (P07711 whole entry): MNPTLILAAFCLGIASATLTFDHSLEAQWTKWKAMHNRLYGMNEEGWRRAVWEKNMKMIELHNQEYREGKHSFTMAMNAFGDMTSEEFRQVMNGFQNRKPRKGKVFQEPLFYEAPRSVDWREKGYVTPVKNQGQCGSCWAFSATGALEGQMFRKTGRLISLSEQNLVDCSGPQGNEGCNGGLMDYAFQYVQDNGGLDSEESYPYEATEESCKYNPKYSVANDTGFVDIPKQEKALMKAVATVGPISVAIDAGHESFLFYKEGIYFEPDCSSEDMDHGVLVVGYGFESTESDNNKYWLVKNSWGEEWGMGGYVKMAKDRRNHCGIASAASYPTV

[10] = target: T4, Replicative DNA helicase DnaB (Mycobacterium tuberculosis, UniProt P9WMR3); assay: DnaB intein splicing inhibitors, dose response, biochemical, cell-free fluorescence (AID 449749); format: functional
T4 sequence (P9WMR3 whole entry): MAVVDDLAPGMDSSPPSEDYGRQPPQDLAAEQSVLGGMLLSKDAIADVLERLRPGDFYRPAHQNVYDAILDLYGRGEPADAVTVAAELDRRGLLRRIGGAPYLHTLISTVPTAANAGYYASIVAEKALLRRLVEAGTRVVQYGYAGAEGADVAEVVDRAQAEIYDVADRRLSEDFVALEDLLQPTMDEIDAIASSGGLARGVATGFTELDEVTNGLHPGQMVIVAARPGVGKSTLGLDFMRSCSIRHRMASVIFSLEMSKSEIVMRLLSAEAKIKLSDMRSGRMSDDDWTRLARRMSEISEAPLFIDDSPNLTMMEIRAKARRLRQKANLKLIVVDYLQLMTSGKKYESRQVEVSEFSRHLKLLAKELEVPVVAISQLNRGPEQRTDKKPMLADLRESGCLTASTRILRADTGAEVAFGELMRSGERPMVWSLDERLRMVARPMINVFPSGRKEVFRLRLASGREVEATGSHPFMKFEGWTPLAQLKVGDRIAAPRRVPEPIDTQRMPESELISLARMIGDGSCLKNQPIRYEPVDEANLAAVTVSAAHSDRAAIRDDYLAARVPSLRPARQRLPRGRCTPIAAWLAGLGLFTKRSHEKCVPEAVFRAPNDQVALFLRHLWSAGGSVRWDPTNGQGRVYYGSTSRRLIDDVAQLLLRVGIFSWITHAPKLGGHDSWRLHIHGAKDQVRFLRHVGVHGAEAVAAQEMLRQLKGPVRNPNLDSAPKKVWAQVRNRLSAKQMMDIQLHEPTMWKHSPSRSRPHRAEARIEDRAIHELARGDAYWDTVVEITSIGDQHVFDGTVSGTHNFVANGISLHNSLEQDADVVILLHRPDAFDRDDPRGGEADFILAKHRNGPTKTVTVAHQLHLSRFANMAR

[11] = target: T5, Protein RecA (Mycobacterium tuberculosis, UniProt P9WHJ3); assay: Fluorescence Cell-Free Homogeneous Dose Retest to Identify Inhibitors of RecA-Intein Splicing Activity. [Related pubchem assays (depositor defined):AID2097, AID2223, AID489010, AID492950]; format: functional
T5 sequence (P9WHJ3 whole entry): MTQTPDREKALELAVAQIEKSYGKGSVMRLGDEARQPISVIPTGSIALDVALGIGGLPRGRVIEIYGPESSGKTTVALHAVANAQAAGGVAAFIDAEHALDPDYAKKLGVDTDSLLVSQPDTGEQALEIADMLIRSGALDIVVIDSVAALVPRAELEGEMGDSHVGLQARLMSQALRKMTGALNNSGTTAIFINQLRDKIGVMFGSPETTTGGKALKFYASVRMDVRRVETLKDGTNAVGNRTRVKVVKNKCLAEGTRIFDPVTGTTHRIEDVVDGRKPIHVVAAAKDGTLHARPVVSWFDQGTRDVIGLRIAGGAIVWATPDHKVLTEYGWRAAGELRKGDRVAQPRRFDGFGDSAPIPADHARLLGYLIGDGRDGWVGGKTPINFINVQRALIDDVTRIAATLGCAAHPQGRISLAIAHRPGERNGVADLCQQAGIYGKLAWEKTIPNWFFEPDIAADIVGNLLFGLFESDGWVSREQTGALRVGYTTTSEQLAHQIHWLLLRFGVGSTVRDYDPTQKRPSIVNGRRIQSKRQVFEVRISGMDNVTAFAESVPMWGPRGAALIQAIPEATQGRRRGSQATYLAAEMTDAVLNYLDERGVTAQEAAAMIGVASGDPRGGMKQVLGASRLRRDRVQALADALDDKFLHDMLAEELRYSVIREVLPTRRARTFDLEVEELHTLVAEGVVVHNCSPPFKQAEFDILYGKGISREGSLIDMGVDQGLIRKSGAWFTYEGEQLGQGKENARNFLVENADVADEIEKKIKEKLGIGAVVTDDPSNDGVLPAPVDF

[12] = target: Dual specificity tyrosine-phosphorylation-regulated kinase 1A (Rattus norvegicus, UniProt Q63470); format: biochemical, Homo sapiens

Sphingosine 1-phosphate receptor 2, sequence (O95136 whole entry): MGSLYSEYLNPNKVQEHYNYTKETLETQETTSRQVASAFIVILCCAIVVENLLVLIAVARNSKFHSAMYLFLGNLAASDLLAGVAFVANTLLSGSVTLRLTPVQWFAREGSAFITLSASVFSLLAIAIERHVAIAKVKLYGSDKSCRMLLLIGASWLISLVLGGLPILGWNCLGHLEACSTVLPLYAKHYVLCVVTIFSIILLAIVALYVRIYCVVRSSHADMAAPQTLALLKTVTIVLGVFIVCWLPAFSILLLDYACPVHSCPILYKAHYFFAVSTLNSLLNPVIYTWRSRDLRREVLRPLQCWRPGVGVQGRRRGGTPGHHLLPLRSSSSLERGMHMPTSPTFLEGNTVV

**Q.** For `Cc1cc(C(=O)COC(=O)C2CSC3(C)CCC(=O)N23)c(C)n1Cc1ccccc1` (configuration not stated), which EC50 [1] is on record?
**A.** > 30 µM (not active)

**Q.** Which results are given for `c1ccc(-c2cc(N3CCCCCC3)n[nH]2)cc1`?
**A.** EC50 [2]: 5.19 µM (active); EC50 [3]: 30.9 µM (active); EC50 [4]: 9.81 µM (active); IC50 [5]: > 50 µM (not active); IC50 [6]: > 50 µM (not active)

**Q.** For `COc1ccc(-c2cc(=O)[nH][nH]2)cc1`, which IC50 [7] is on record?
**A.** 2.97 µM (active)

**Q.** What about the IC50 [8] of the same compound?
**A.** > 73.5 µM (not active)

**Q.** And the IC50 [9]?
**A.** > 59.6 µM (not active)

**Q.** And the AC50 [10]?
**A.** 0.882 µM (active)

**Q.** What about the EC50 [11] of the same compound?
**A.** 0.444 µM (active)

**Q.** And the AC50 [12]?
**A.** 5.54 µM (active)
